Measured values: patent US5567692A, “9-[(substituted glycyl) amido)]-6-demethyl-6-deoxytetracyclines” (priority 1995, dated 1996)
Counter-ions that a name gives are not always drawn. Like-named read-outs stand apart in the source and are kept apart here.

Key:
E. coli ATCC 25922 = experiment: MIC, agar dilution; format: cell-based; conditions: Escherichia coli, ATCC25922, 18 h
[1] = tested on: S. aureus UBMS 88-5 Tet M; experiment: microbe, parasite or virus in culture; format: cell-based; conditions: Staphylococcus aureus, UBMS885TETM, 18 h
[2] = tested on: X. maltophilia NEMC 87210; experiment: MIC, agar dilution; format: cell-based; conditions: Stenotrophomonas maltophilia, NEMC87210, 18 h
S. aureus ATCC 29213 = experiment: MIC, agar dilution; format: cell-based; conditions: Staphylococcus aureus, ATCC29213, 18 h, S. aureus ATCC 29213; read-out: MIC
E. faecalis ATCC 29212 = experiment: MIC, agar dilution; format: cell-based; conditions: Enterococcus faecalis, ATCC29212, 18 h
[3] = tested on: E. coli UBMS 89-2 Tet sens.; experiment: MIC, agar dilution; format: cell-based; conditions: Escherichia coli, 18 h
[4] = tested on: Ps. aeruginosa ATCC 27853; experiment: MIC, agar dilution; format: cell-based; conditions: Pseudomonas aeruginosa, ATCC27853, 18 h, Ps. aeruginosa ATCC 27853; read-out: MIC
Enterococcus 12201 = experiment: MIC, agar dilution; format: cell-based; conditions: Enterococcus, 12201, 18 h
[5] = tested on: S. aureus UBMS 88-7 Tet K; experiment: microbe, parasite or virus in culture; format: cell-based; conditions: Staphylococcus aureus, UBMS887TETK, 18 h
S. aureus UBMS 90-3 = experiment: MIC, agar dilution; format: cell-based; conditions: Staphylococcus aureus, UBMS903, 18 h
S. aureus SMITH (MP) = experiment: MIC, agar dilution; format: cell-based; conditions: Staphylococcus aureus, 18 h; S. aureus SMITH (MP); read-out: MIC
[6] = tested on: S. aureus UBMS 90-1 Tet M; experiment: microbe, parasite or virus in culture; format: cell-based; conditions: Staphylococcus aureus, UBMS901TETM, 18 h
E. coli #311 (MP) = experiment: MIC, agar dilution; format: cell-based; conditions: Escherichia coli, 18 h
E. coli UBMS 90-4 Tet M = experiment: microbe, parasite or virus in culture; format: cell-based; conditions: Escherichia coli, UBMS904TETM, 18 h
[7] = tested on: E. coli MC 4100 Tet sens.; experiment: MIC, agar dilution; format: cell-based; conditions: Escherichia coli, 18 h
E. coli UBMS 90-5 = experiment: microbe, parasite or virus in culture; format: cell-based; conditions: Escherichia coli, UBMS905, 18 h, E. coli UBMS 90-5; read-out: MIC
S. aureus ROSE (MP) = experiment: MIC, agar dilution; format: cell-based; conditions: Staphylococcus aureus, 18 h, read-out: MIC
E. coli PRP1 Tet A = experiment: microbe, parasite or virus in culture; format: cell-based; conditions: Escherichia coli, PRP1TETA, 18 h
E. coli J2175 = experiment: MIC, agar dilution; format: cell-based; conditions: Escherichia coli, 18 h, read-out: MIC
E. coli UBMS 88-1 Tet B = experiment: microbe, parasite or virus in culture; format: cell-based; conditions: Escherichia coli, UBMS881TETB, 18 h
S. aureus NEMC 8769 = experiment: MIC, agar dilution; format: cell-based
[8] = tested on: S. aureus UBMS 90-2 Tet M; experiment: microbe, parasite or virus in culture; format: cell-based; conditions: Staphylococcus aureus, UBMS902TETM, 18 h
E. coli J3272 Tet C = experiment: microbe, parasite or virus in culture; format: cell-based; conditions: Escherichia coli, J3272TETC, 18 h
[9] = tested on: S. hemolyticus AVHAH 88-3; experiment: MIC, agar dilution; format: cell-based; conditions: Streptococcus pyogenes, AVHAH883, 18 h
S. aureus IVES 2943 = experiment: MIC, agar dilution; format: cell-based; conditions: Staphylococcus aureus, IVES2943, 18 h, S. aureus IVES 2943; read-out: MIC
E. coli J3272 Tet D = experiment: microbe, parasite or virus in culture; format: cell-based; conditions: Escherichia coli, J3272TETD, 18 h
S. marcescens FPOR 8733 = experiment: MIC, agar dilution; format: cell-based; conditions: Serratia marcescens, FPOR8733, 18 h
E. coli UBMS 89-1 Tet M = experiment: microbe, parasite or virus in culture; format: cell-based; conditions: Escherichia coli, UBMS891TETM, 18 h
[10] = tested on: E. coli MC 4100 TNIOC Tet B; experiment: microbe, parasite or virus in culture; format: cell-based; conditions: Escherichia coli, 18 h
E. coli BAJ9003 IMP MUT = experiment: microbe, parasite or virus in culture; format: cell-based; conditions: Escherichia coli, BAJ9003IMPMUT, 18 h
S. aureus IVES 1983 = experiment: MIC, agar dilution; format: cell-based; conditions: Staphylococcus aureus, IVES1983, 18 h
S. aureus UBMS 88-4 = experiment: MIC, agar dilution; format: cell-based; conditions: Staphylococcus aureus, UBMS884, 18 h
[11] = tested on: Staphylococcus aureus strain Smith (tetracycline sensitive); experiment: Acute lethal infection in mice, S. aureus Smith; format: in vivo; conditions: for ED50: Staphylococcus aureus, 168 h, mice, S. aureus Smith (Sens), 7 day survival, read-out: ED50

CC1CCN(CC(=O)Nc2ccc3c(c2O)C(=O)C2=C(O)[C@]4(O)C(=O)C(C(N)=O)=C(O)[C@@H](N(C)C)C4CC2C3)CC1 (stereo partly drawn) [A, [7S-(7alpha,10aalpha)]-N-(9-(Aminocarbonyl)-7-(dimethylamino)-5,5a,6,6a,7,10,10a,12-octahydro-1,8,10a,11-tetrahydroxy-10,12-dioxo-2-naphthacenyl]-4-methyl-1-piperidineacetamide dihydrochloride]
2 µg/mL: MIC (S. aureus ROSE (MP)) | MIC [9]
8 µg/mL: MIC (S. marcescens FPOR 8733)
0.25 µg/mL: MIC (E. coli ATCC 25922; read-out: MIC) | MIC (E. faecalis ATCC 29212) | MIC (E. coli #311 (MP)) | MIC [7] | MIC (E. coli J3272 Tet D) | MIC (E. coli UBMS 89-1 Tet M)
> 32 µg/mL: MIC [4]
0.12 µg/mL: MIC (E. coli BAJ9003 IMP MUT)
1 µg/mL: MIC [5] | MIC [6] | MIC (E. coli PRP1 Tet A) | MIC (E. coli UBMS 88-1 Tet B) | MIC (E. coli J3272 Tet C) | MIC [10] | MIC (S. aureus IVES 1983)
no growth: MIC (S. aureus NEMC 8769)
0.5 µg/mL: MIC [1] | MIC ([2]; X. maltophilia NEMC 87210, read-out: MIC) | MIC (S. aureus ATCC 29213) | MIC [3] | MIC (Enterococcus 12201; Enterococcus 12201, read-out: MIC) | MIC (S. aureus UBMS 90-3) | MIC (S. aureus SMITH (MP)) | MIC (E. coli UBMS 90-4 Tet M) | MIC (E. coli UBMS 90-5) | MIC (E. coli J2175) | MIC [8] | MIC (S. aureus IVES 2943) | MIC (S. aureus UBMS 88-4)

CCCNCC(=O)Nc1ccc2c(c1O)C(=O)C1=C(O)[C@]3(O)C(=O)C(C(N)=O)=C(O)[C@@H](N(C)C)C3CC1C2 (stereo partly drawn) [C, [4S-(4alpha,12aalpha)]-4-(Dimethylamino)-1,4,4a,5,5a,6,11,12a-octahydro-3,10,12,12a-tetrahydroxy-1,11-dioxo-9-[[(propylamino)acetyl]amino]-2-naphthacenecarboxamide dihydrochloride]
16 µg/mL: MIC [4] | MIC (S. aureus ROSE (MP))
0.5 µg/mL: MIC [1] | MIC (E. coli #311 (MP); E. coli #311 (MP), read-out: MIC) | MIC (E. coli UBMS 88-1 Tet B) | MIC (E. coli J3272 Tet C) | MIC ([9]; S. hemolyticus AVHAH 88-3, read-out: MIC)
0.12 µg/mL: MIC (E. coli ATCC 25922) | MIC (E. faecalis ATCC 29212; E. faecalis ATCC 29212, read-out: MIC) | MIC (S. aureus SMITH (MP)) | MIC [7] | MIC (E. coli J3272 Tet D)
0.25 µg/mL: MIC (S. aureus ATCC 29213) | MIC [3] | MIC (Enterococcus 12201) | MIC [6] | MIC (E. coli UBMS 90-4 Tet M) | MIC (E. coli UBMS 90-5) | MIC (E. coli J2175) | MIC [8] | MIC (E. coli UBMS 89-1 Tet M) | MIC (S. aureus UBMS 88-4)
1 to 2 mg/kg: ED50 ([11]; iv, Intraveneous)
0.06 µg/mL: MIC (S. aureus UBMS 90-3) | MIC (S. aureus NEMC 8769; Staphylococcus aureus, NEMC8769, 18 h) | MIC (E. coli BAJ9003 IMP MUT)
> 16 mg/kg: ED50 ([11]; po, Oral)
4 µg/mL: MIC [2] | MIC (S. aureus IVES 2943) | MIC (S. marcescens FPOR 8733; read-out: MIC) | MIC (S. aureus IVES 1983; S. aureus IVES 1983, read-out: MIC)
2 µg/mL: MIC [5]
1 µg/mL: MIC (E. coli PRP1 Tet A)
very good in vivo activity: in vivo activity (in words) ([11]; tested intravenously against the minocycline sensitive organism S. aureus Smith)
